The values that follow come from patent publication US9975878B2, “Substituted triazine BMI-1 inhibitors” (PTC Therapeutics, Inc., priority 2013, dated 2018).

This test relates to Bmi-1 protein. The test is described as follows: Sandwich ELISA Assay: Bmi-1 protein level in HT-1080 cells treated with test compounds. Type of test: cell-based. How it is done:
Cell Seeding and Compound Treatment (Day 1):
HT-1080 cells were seeded at 8000 cells/well (50 μL) in 96-well tissue culture plates. After the cells became adherent (3-4 hours), 2× diluted stocks of test compounds in 50 μL DMEM containing 1% DMSO (final DMSO concentration was 0.5%) were added and the plates were incubated at 37° C. under 5% CO2 for 40-48 hours.
ELISA Plate First Antibody Preparation (Day 2):
The First Antibody (Millipore Mouse, monoclonal to mouse Bmi-1, clone F6, catalog #05-637) diluted to 2 μg/mL in PBS was added (100 μL) to each well of a Nunc MaxiSorp 96-well ELISA plate. The plate was covered with a plate seal and allowed to stand overnight.
Cell Lysate Preparation (Day 3):
Fresh Lysis buffer (1×) was prepared on the day of the assay as follows: 1 mM EDTA, 150 mM NaCl, 0.5% Triton-X 100, 10 mM NaF, 20 mM B-Glycerophosphate, 1 mM DTT (in PBS, pH 7.2-7.4) and HALT protease inhibitor cocktail (1×) (Pierce #78410).
Lysis Buffer (1×, 40 μL) was added to each well and the plate was shaken for 5-10 minutes on an orbital shaker to allow cell lysis, then diluent (1% BSA in PBS in 0.5% NP40) (100 μL) was added to each well.
A standard curve was prepared at the following Bmi-1 concentrations: 8000, 4000, 2000, 1000, 500, 250, 125 and 0 pg/mL. The Bmi-1 Recombinant Protein Standard (Novus Biologicals PCGF4 Recombinant Protein (P01), catalog # H00000648-P01) used to prepare the standard curve was stored at −80° C. On first thaw, the Recombinant Protein Standard was diluted to 10 μg/μL in Blocking Buffer (1% BSA in PBS; BSA: Fisher Scientific Catalog #1600-100). Aliquots were taken and refrozen at −80° C. The aliquots may be kept at 4° C. and reused after first thaw, but only within 1-2 weeks. The Recombinant Protein Standard contains a GST-fusion tag that appears at approximately 70 Kda on Western Blot.
The prepared ELISA plate was washed 3× with Wash Buffer (0.05% Tween-20 in PBS). The final wash was removed from the plate and the plate was blotted dry. Blocking Buffer (300 μL) (1% BSA in PBS) was added to each well. The plate was covered with a plate seal and incubated at room temperature for 1 hour. The blocked plate was washed 3× with Wash Buffer, then the final wash was removed and the plate was blotted dry. The previously prepared samples and standards were added (100 μL/well) and the plate was covered with a plate seal and incubated at 4° C. overnight.
The prepared ELISA plate was removed from incubation and allowed to stand at room temperature for 30 minutes, then washed and blotted dry. The Second Antibody (Cell Signaling Rabbit anti-Bmi-1, Cat# 2830) diluted to 1:600 in Blocking Buffer was added (100 μL) to each well, except as needed for background control wells. The plate was covered with a plate seal and incubated for 1.5 hrs at room temperature.
The ELISA plate was washed and blotted dry as previously described. The Third Antibody (Cell Signaling HRP conjugated anti-rabbit IgG (CellSignaling, Cat#:7074) diluted to 1:300 in Blocking Buffer was added (100 μL) to each well, except as needed for background control wells. The plate was incubated for 1 hr at room temperature.
The plate was washed and blotted dry, then a previously prepared TMB substrate (TMB substrate kit, Pierce catalog #34021) (prepared by mixing kit reagents 1:1) (100 μL) was added per well. The plate was incubated for 20-30 minutes at room temperature in the dark, then Stop Solution (2 M sulfuric acid in water) (50 μL) was added per well. The plates were read at OD450 (experimental) and OD570 (reference).
On the technique in general: In an ELISA, binding on a coated surface is turned into a signal by an enzyme label.
Usually EC50 stands for the concentration that produces a half-maximal response. A low value points to greater potency. `Cc1nc2ccc(F)cc2n1-c1nc(N)nc(Nc2ccc(C(F)(F)F)nc2)n1` [Cpd 53, 6-(6-fluoro-2-methyl-1H-benzimidazol-1-yl)-N-[6-(trifluoromethyl)pyridin-3-yl]-1,3,5-triazine-2,4-diamine] registered an EC50 of 10 to 100 nM.
Under `Cc1nc2cc(F)ccc2n1-c1nc(N)nc(Nc2ccc(OC(F)F)c(F)c2)n1` [Cpd 54, N-[4-(difluoromethoxy)-3-fluorophenyl]-6-(5-fluoro-2-methyl-1H-benzimidazol-1-yl)-1,3,5-triazine-2,4-diamine] stands 100 to 3000 nM.
`CCc1nc2ccc(F)cc2n1-c1nc(N)nc(Nc2ccc(C(F)(F)F)cc2)n1` [Cpd 55, 6-(2-ethyl-6-fluoro-1H-benzimidazol-1-yl)-N-[4-(trifluoromethyl)phenyl]-1,3,5-triazine-2,4-diamine] showed an EC50 of 10 to 100 nM.
Take `CCc1nc2ccc(F)cc2n1-c1nc(N)nc(Nc2ccc(OC(F)F)cc2)n1` [Cpd 56, N-[4-(difluoromethoxy)phenyl]-6-(2-ethyl-6-fluoro-1H-benzimidazol-1-yl)-1,3,5-triazine-2,4-diamine]: the EC50 is 10 to 100 nM.
Turning to `CCc1nc2ccc(F)cc2n1-c1nc(N)nc(Nc2ccc(OC(F)F)c(F)c2)n1` [Cpd 57, N-[4-(difluoromethoxy)-3-fluorophenyl]-6-(2-ethyl-6-fluoro-1H-benzimidazol-1-yl)-1,3,5-triazine-2,4-diamine], the 50% effective concentration (EC50) was in the range of 10 to 100 nM.
Take `CCc1nc2cc(F)ccc2n1-c1nc(N)nc(Nc2ccc(C(F)(F)F)cc2)n1` [Cpd 58, 6-(2-ethyl-5-fluoro-1H-benzimidazol-1-yl)-N-[4-(trifluoromethyl)phenyl]-1,3,5-triazine-2,4-diamine]: the concentration for a half-maximal effect (EC50) lay in the range of 10 to 100 nM.
Regarding `CCc1nc2cc(F)ccc2n1-c1nc(N)nc(Nc2ccc(OC(F)F)cc2)n1` [Cpd 59, N-[4-(difluoromethoxy)phenyl]-6-(2-ethyl-5-fluoro-1H-benzimidazol-1-yl)-1,3,5-triazine-2,4-diamine], the concentration for a half-maximal effect (EC50) lay within 10 to 100 nM.
Consider `CCc1nc2cc(F)ccc2n1-c1nc(N)nc(Nc2ccc(OC(F)F)c(F)c2)n1` [Cpd 60, N-[4-(difluoromethoxy)-3-fluorophenyl]-6-(2-ethyl-5-fluoro-1H-benzimidazol-1-yl)-1,3,5-triazine-2,4-diamine], for which the EC50 is 10 to 100 nM.
Take `Nc1nc(Nc2ccc(C(F)(F)F)cc2)nc(-c2c(C(F)(F)F)nc3ccccn23)n1` [Cpd 61, 6-[2-(trifluoromethyl)imidazo[1,2-a]pyridin-3-yl]-N-[4-(trifluoromethyl)phenyl]-1,3,5-triazine-2,4-diamine]: the EC50 lay in the range of 10 to 100 nM.
Next, `Nc1nc(Nc2ccc(C(F)(F)F)cc2)nc(-n2c(C3CC3)nc3ccc(F)cc32)n1` [Cpd 62, 6-(2-cyclopropyl-6-fluoro-1H-benzimidazol-1-yl)-N-[4-(trifluoromethyl)phenyl]-1,3,5-triazine-2,4-diamine]: 10 to 100 nM; `Nc1nc(Nc2ccc(OC(F)F)cc2)nc(-n2c(C3CC3)nc3ccc(F)cc32)n1` [Cpd 63, 6-(2-cyclopropyl-6-fluoro-1H-benzimidazol-1-yl)-N-[4-(difluoromethoxy)phenyl]-1,3,5-triazine-2,4-diamine]: 10 to 100 nM.
In turn, `Nc1nc(Nc2ccc(OC(F)F)c(F)c2)nc(-n2c(C3CC3)nc3ccc(F)cc32)n1` [Cpd 64, 6-(2-cyclopropyl-6-fluoro-1H-benzimidazol-1-yl)-N-[4-(difluoromethoxy)-3-fluorophenyl]-1,3,5-triazine-2,4-diamine] returned a 50% effective concentration (EC50) of 10 to 100 nM.
Compound `Nc1nc(Nc2ccc(C(F)(F)F)cc2)nc(-n2c(C3CC3)nc3cc(F)ccc32)n1` [Cpd 65, 6-(2-cyclopropyl-5-fluoro-1H-benzimidazol-1-yl)-N-[4-(trifluoromethyl)phenyl]-1,3,5-triazine-2,4-diamine] had an EC50 of 100 to 3000 nM.
For `Nc1nc(Nc2ccc(OC(F)F)cc2)nc(-n2c(C3CC3)nc3cc(F)ccc32)n1` [Cpd 66, 6-(2-cyclopropyl-5-fluoro-1H-benzimidazol-1-yl)-N-[4-(difluoromethoxy)phenyl]-1,3,5-triazine-2,4-diamine], the EC50 lay in the range of 10 to 100 nM.
Compound `Nc1nc(Nc2ccc(OC(F)F)c(F)c2)nc(-n2c(C3CC3)nc3cc(F)ccc32)n1` [Cpd 67, 6-(2-cyclopropyl-5-fluoro-1H-benzimidazol-1-yl)-N-[4-(difluoromethoxy)-3-fluorophenyl]-1,3,5-triazine-2,4-diamine] returned a half-maximal effective concentration (EC50) of 100 to 3000 nM.
Next, `CCc1nc2c(F)cccc2n1-c1nc(N)nc(Nc2ccc(C(F)(F)F)cc2)n1` [Cpd 68, 6-(2-ethyl-4-fluoro-1H-benzimidazol-1-yl)-N-[4-(trifluoromethyl)phenyl]-1,3,5-triazine-2,4-diamine]: 10 to 100 nM; `CCc1nc2c(F)cccc2n1-c1nc(N)nc(Nc2ccc(OC(F)F)cc2)n1` [Cpd 69, N-[4-(difluoromethoxy)phenyl]-6-(2-ethyl-4-fluoro-1H-benzimidazol-1-yl)-1,3,5-triazine-2,4-diamine]: 10 to 100 nM; `CCc1nc2c(F)cccc2n1-c1nc(N)nc(Nc2ccc(OC(F)F)c(F)c2)n1` [Cpd 70, N-[4-(difluoromethoxy)-3-fluorophenyl]-6-(2-ethyl-4-fluoro-1H-benzimidazol-1-yl)-1,3,5-triazine-2,4-diamine]: 10 to 100 nM.
Under `Nc1nc(Nc2ccc(C(F)(F)F)c(F)c2)nc(-c2c(C(F)(F)F)nc3ccccn23)n1` [Cpd 71, N-[3-fluoro-4-(trifluoromethyl)phenyl]-6-[2-(trifluoromethyl)imidazo[1,2-a]pyridin-3-yl]-1,3,5-triazine-2,4-diamine] stands 100 to 3000 nM; under `Nc1nc(Nc2ccc(OC(F)F)cc2)nc(-c2c(C(F)(F)F)nc3ccccn23)n1` [Cpd 72, N-[4-(difluoromethoxy)phenyl]-6-[2-(trifluoromethyl)imidazo[1,2-a]pyridin-3-yl]-1,3,5-triazine-2,4-diamine], 10 to 100 nM; under `Nc1nc(Nc2ccc(OC(F)F)cc2)nc(-c2c(C(F)(F)F)nc3ccc(F)cn23)n1` [Cpd 73, N-[4-(difluoromethoxy)phenyl]-6-[6-fluoro-2-(trifluoromethyl)imidazo[1,2-a]pyridin-3-yl]-1,3,5-triazine-2,4-diamine], 10 to 100 nM.
Take `Cc1nc2cc(Cl)ccc2n1-c1nc(N)nc(Nc2ccc(C(F)(F)F)cc2)n1` [Cpd 74, 6-(5-chloro-2-methyl-1H-benzimidazol-1-yl)-N-[4-(trifluoromethyl)phenyl]-1,3,5-triazine-2,4-diamine]: the concentration for a half-maximal effect (EC50) fell in the range of 100 to 3000 nM.
Under `Cc1nc2ccc(Cl)cc2n1-c1nc(N)nc(Nc2ccc(C(F)(F)F)cc2)n1` [Cpd 75, 6-(6-chloro-2-methyl-1H-benzimidazol-1-yl)-N-[4-(trifluoromethyl)phenyl]-1,3,5-triazine-2,4-diamine] stands 10 to 100 nM; under `Fc1ccc2nc(C3CC3)n(-c3ncnc(Nc4ccc(C(F)(F)F)cc4)n3)c2c1` [Cpd 76, 4-(2-cyclopropyl-6-fluoro-1H-benzimidazol-1-yl)-N-[4-(trifluoromethyl)phenyl]-1,3,5-triazin-2-amine], 100 to 3000 nM.
Under `Nc1nc(Nc2ccc(OC(F)F)cc2)nc(-n2c(C3CC3)nc3ncc(F)cc32)n1` [Cpd 77, 6-(2-cyclopropyl-6-fluoro-1H-imidazo[4,5-b]pyridin-1-yl)-N-[4-(difluoromethoxy)phenyl]-1,3,5-triazine-2,4-diamine] stands 10 to 100 nM.
As to `Cc1nc2ncc(F)cc2n1-c1nc(N)nc(Nc2ccc(OC(F)F)cc2)n1` [Cpd 78, N-[4-(difluoromethoxy)phenyl]-6-(6-fluoro-2-methyl-1H-imidazo[4,5-b]pyridin-1-yl)-1,3,5-triazine-2,4-diamine], the concentration giving a half-maximal response (EC50) lay within 100 to 3000 nM.
